Six compounds from patent US7332476B2, “Pyridyl substituted ketolide antibiotics” (Novartis AG, priority 2003, dated 2008) can be followed below.

Test in all cases: MIC, broth microdilution (NCCLS)
In general terms: Broth dilution looks for growth in wells or tubes with falling amounts of substance.

One assay deals with E. coli Esco_25922. Format: cell-based. Particulars: Table 5, Strain ID M (Table 4): E. coli Esco_25922; unit assumed. How it is done: Strains. The bacterial isolates listed in Table 4 were cultivated from −70° C. frozen stocks by two consecutive overnight passages (P1, P2) at 35° C. on 5% blood agar (Remel, Lenexa, Kans.). Chocolate agar (Remel) is used for Haemophilus influenzae. H. influenzae and Streptococcus pneumoniae are incubated in 5-10% CO2
Drug Stock Preparation. To determine the amount of solvent to be used to give the desired final concentration, the formula “weight obtained in mg/final concentration in mg/ml” will be used. It will give the amount of solvent in ml needed to be added to give the desired concentration. For example, if 2.5 mg/ml is the desired concentration and the weight of compound is 13.7 mg, then the amount of solvent to be added is […]. Methanol is used as the solvent to dissolve the test compounds. Further dilution of stock is done in sterile, deionized water. Drug stocks are kept frozen at −70° C., protected from light.
Susceptibility Testing. MICs are determined by the broth microdilution method in accordance with the NCCLS guidelines. In brief, organism suspensions are adjusted to a 0.5 McFarland standard to yield a final inoculum between 3×10^5 and 7×10^5 CFU/ml. Drug dilutions and inocula are made in sterile, cation adjusted Mueller-Hinton Broth (CAMHB) (Remel) for all but S. pneumoniae [CAMHB with 2-5% lysed horse blood (Remel)] and H. influenzae [Haemophilus Test Medium (Remel)]. An inoculum volume of 100 μl is added to wells containing 100 μl of broth with 2-fold serial dilutions of drug. All inoculated microdilution trays are incubated in ambient air at 35° C. for 18-24 hours, except for S. pneumoniae, and H. influenzae (both at 5-10% CO2).
Following appropriate incubation, the MIC is determined and the MIC is defined as the lowest concentration of the drug that prevented visible growth.

Assay [1] deals with S. pneumoniae Stpn_Erm 6849. The format is cell-based, Streptococcus pneumoniae. To be noted: for MIC: Table 5, Strain ID H (Table 4): S. pneumoniae Stpn_Erm 6849, unit assumed. In short, it runs like this:
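S. pneumoniae MIC by NCCLS broth microdilution in cation-adjusted Mueller-Hinton broth with 2-5% lysed horse blood, inoculum 3×10^5–7×10^5 CFU/ml, 2-fold drug dilutions. Incubated 18-24 hours at 35° C. in 5-10% CO2; MIC is lowest concentration preventing visible growth.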

Assay [2] has as its system Streptococcus pneumoniae Stpn_49619. Format: cell-based. Details: MIC, strain ID M: unit not given beside the values. Particulars: for MIC: Table 5, Strain ID E (Table 4): S. pneumoniae Stpn_49619. In outline: (§1)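 NCCLS broth microdilution with 2-fold serial drug dilutions (methanol stocks diluted in water); inoculum 3×10^5–7×10^5 CFU/ml in CAMHB, with 2-5% lysed horse blood for S. pneumoniae. Incubation 18-24 h at 35° C., ambient air, except S. pneumoniae (5-10% CO2). MIC is lowest concentration preventing visible growth.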

The subject of assay [3] is Streptococcus pneumoniae Stpn_Mef 5654. The format is cell-based. To be noted: Table 5, Strain ID J (Table 4): S. pneumoniae Stpn_Mef 5654; in µg/mL (unit assumed). In outline: as §1
Assay [4] has as its system Streptococcus pneumoniae Stpn_280-962. Format: cell-based. Details: MIC, strain ID O: unit not given beside the values. To be noted: for MIC: Table 5, Strain ID G (Table 4): S. pneumoniae Stpn_280-962 Pen S. In short, it runs like this: as §1
Assay [5] has as its system Streptococcus pyogenes Stpy_8668. The format is cell-based. Details: MIC, strain ID G: unit not given beside the values. Particulars: for MIC: Table 5, Strain ID D (Table 4): S. pyogenes Stpy_8668. In outline: as §1
Assay [6] concerns Streptococcus pneumoniae Stpn_297-749. Format: cell-based. Details: MIC, strain ID N: unit not given here. Particulars: for MIC: Table 5, Strain ID F (Table 4): S. pneumoniae Stpn_297-749 Pen R. In outline:
as §1

Assay [7] concerns Staphylococcus epidermidis Step_f50654. Format: cell-based. To be noted: in µg/mL (unit assumed); for MIC: Table 5, Strain ID B (Table 4): S. epidermidis Step_f50654 Pen S. In short, it runs like this: as §1
The subject of assay [8] is Haemophilus influenzae Hain_49247. The format is cell-based. Particulars: unit assumed; for MIC: Table 5, Strain ID L (Table 4): H. influenzae Hain_49247.
For assay [9], the system named is Streptococcus pneumoniae Stpn_Erm S 4297. The format is cell-based. To be noted: for MIC: Table 5, Strain ID I (Table 4): S. pneumoniae Stpn_Erm S 4297. In short, it runs like this:
as §1

Assay [10] has as its system Streptococcus pneumoniae Stpn_Mef S 3427. Format: cell-based. To be noted: Table 5, Strain ID K (Table 4): S. pneumoniae Stpn_Mef S 3427. In short, it runs like this:
as §1

Assay [11] has as its system Staphylococcus epidermidis Step_14990. The format is cell-based. Particulars: in µg/mL (unit assumed); for MIC: Table 5, Strain ID A (Table 4): S. epidermidis Step_14990. In short, it runs like this:
as §1

The test system of assay [12] is Enterococcus faecalis Enfa_29212. Format: cell-based. To be noted: for MIC: Table 5, Strain ID C (Table 4): E. faecalis Enfa_29212. In short, it runs like this: as §1
Assay [13] has as its system Staphylococcus aureus Stau_29213. The format is cell-based. To be noted: strain ID A; broth microdilution; in µg/mL (unit assumed). In outline: as §1
For assay [14], the system named is Haemophilus influenzae Hain_2762. Format: cell-based. To be noted: strain ID L; broth microdilution; in µg/mL (unit assumed). In outline: (§2)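 NCCLS broth microdilution, inoculum 3×10^5–7×10^5 CFU/ml, 2-fold drug dilutions; CAMHB for staphylococci and enterococci, Haemophilus Test Medium for H. influenzae. Incubated 35 °C for 18-24 hours, ambient air or 5-10% CO2 for H. influenzae; MIC is lowest concentration preventing visible growth.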

The test system of assay [15] is Haemophilus influenzae Hain_960820544-3. Format: cell-based. To be noted: strain ID J; broth microdilution; in µg/mL (unit assumed). In short, it runs like this:
as §2

The subject of assay [16] is Haemophilus influenzae Hain_960730503-3. The format is cell-based. Particulars: strain ID I; broth microdilution; in µg/mL (unit assumed). In outline: as §2
Assay [17] has as its system Enterococcus faecalis Enfa_bc 11148-2. Format: cell-based. Particulars: strain ID F; broth microdilution; in µg/mL (unit assumed). In short, it runs like this:
as §2

The subject of assay [18] is Haemophilus influenzae Hain_953460299-3. The format is cell-based. Particulars: strain ID K; broth microdilution; in µg/mL (unit assumed). In short, it runs like this:
as §2

The subject of assay [19] is Staphylococcus aureus Stau_33591. The format is cell-based. Particulars: strain ID B; broth microdilution; unit assumed. In short, it runs like this: as §2

≈ marks a conversion by molar mass, not a printed value.

On to `CC[C@H]1OC(=O)[C@H](C)C(=O)[C@H](C)[C@@H](OC2O[C@H](C)C[C@H](N(C)C)[C@H]2O)[C@@](C)(OC)C[C@@H](C)C(=O)[C@H](C)[C@H]2NC(=O)O[C@@H]21` (stereo partly drawn) [Compound 4266], for which the MIC in the assay with E. coli Esco_25922 is more than 50 µg/mL; in assay [1], more than 50 µg/mL; in assay [2] (unit assumed), 0.2 µg/mL (≈ 0.334 µM); in [3] it was 0.2; in [4], “=0.05”; in [5] (unit assumed), 0.1 µg/mL (≈ 0.167 µM). Moreover, the MIC entry in assay [6] is “=0.05”; in assay [7], 3.13; in assay [8], 25 µg/mL (≈ 41.8 µM); in assay [9] (unit assumed) it was more than 50 µg/mL; in assay [10] (in µg/mL (unit assumed)) it was 0.1; in assay [11], 3.13. Moreover, the MIC in assay [12] (in µg/mL (unit assumed)) is recorded as 1.56.
For `CC[C@H]1OC(=O)[C@H](C)C(=O)[C@H](C)[C@@H](OC2O[C@H](C)C[C@H](N(C)C)[C@H]2O)[C@@](C)(OC)C[C@@H](C)C(=O)[C@H](C)[C@@H]2[C@@H]1OC(=O)N2CCCCn1cnc(-c2ccccc2)c1` (stereo partly drawn) [Compound 4710], the MIC was 50 µg/mL (≈ 62.7 µM) in the assay on E. coli Esco_25922; 0.2 µg/mL (≈ 0.251 µM) in assay [1]; “=0.5” in [2]; 0.2 in assay [3]; “=0.5” in [4]; “=0.5” in assay [5]. The MIC entry in [6] is “=0.5”; in assay [7] it was 0.2; in assay [8] it was 3.13 µg/mL (≈ 3.93 µM); in assay [9], “=0.05”; in [10] it was “=0.5”; in assay [11], 0.1. In addition, the MIC result in assay [12] is recorded as “=0.05”.
For `CC[C@H]1OC(=O)[C@H](C)C(=O)[C@H](C)[C@@H](OC2O[C@H](C)C[C@H](N(C)C)[C@H]2O)[C@@](C)(OC)C[C@@H](C)C(=O)[C@H](C)[C@@H]2[C@@H]1OC(=O)N2CCCCc1ccnc2ccccc12` (stereo partly drawn) [Compound 4711], the MIC in the assay with E. coli Esco_25922 is 50 µg/mL (≈ 63.9 µM); in assay [1], 6.25 µg/mL (≈ 7.99 µM); in assay [2] it was “=0.5”; in assay [3] it was 0.1; in assay [4], “=0.5”; in assay [5] it was “=0.5”. Further, the MIC result in assay [6] was “=0.5”; in [7], 0.1; in assay [8] it was 1.56 µg/mL (≈ 1.99 µM); in [9] (unit assumed), 0.2 µg/mL (≈ 0.256 µM); in assay [10] it was “=0.5”; in assay [11], 0.1. The MIC entry in assay [12] was “=0.05”.
In the case of `CC[C@H]1OC(=O)[C@H](C)C(=O)[C@H](C)[C@@H](OC2O[C@H](C)C[C@H](N(C)C)[C@H]2O)[C@@](C)(OC)C[C@@H](C)C(=O)[C@H](C)[C@@H]2[C@@H]1OC(=O)N2CCCCn1cnc2ncccc21` (stereo partly drawn) [Compound 4713], the MIC with E. coli Esco_25922 is 50 µg/mL (≈ 64.8 µM); in [1], 0.78 µg/mL (≈ 1.01 µM); in [2] it was “=0.5”; in assay [3], 3.13; in [4], “=0.5”; in assay [5], “=0.5”. In addition, the MIC result in [6] was “=0.5”; in assay [7], 0.4; in assay [8], 3.13 µg/mL (≈ 4.05 µM); in [9] (unit assumed) it was 0.1 µg/mL (≈ 0.13 µM); in assay [10] (in µg/mL (unit assumed)), 0.4; in assay [11], 0.4. This compound also came in with an MIC in [12] (in µg/mL (unit assumed)) of 0.1.
As for `CC[C@H]1OC(=O)[C@H](C)C(=O)[C@H](C)[C@@H](OC2O[C@H](C)C[C@H](N(C)C)[C@H]2O)[C@@](C)(OC)C[C@@H](C)C(=O)[C@H](C)[C@H]2N(CCCCc3ccnc4ccccc34)C(=O)O[C@]12CC` (stereo partly drawn) [Compound 7283], the MIC is 12.5 µg/mL (≈ 15.4 µM) against E. coli Esco_25922; 0.4 µg/mL (≈ 0.494 µM) in [1]; “=0.05” in [2]; 0.4 in assay [3]; “=0.05” in assay [4]; “=0.05” in assay [5]. Moreover, the MIC result is given as “=0.05” in assay [6], 0.2 in [7] and “=0.05” in assay [10].
Consider `C=C[C@]12OC(=O)N(CCCCn3cnc(-c4cnccc4OC)c3)[C@@H]1[C@@H](C)C(=O)[C@H](C)C[C@](C)(OC)[C@H](OC1O[C@H](C)C[C@H](N(C)C)[C@H]1O)[C@@H](C)C(=O)[C@@H](C)C(=O)O[C@@H]2CC` (stereo partly drawn) [XXXV], for which the “MIC, strain ID P” value in [1] (strain ID P, broth microdilution, in µg/mL (unit assumed)) was 0.78. For the same compound, the “MIC, strain ID M” value in assay [2] (strain ID M, broth microdilution) is “=0.05”. The “MIC, strain ID O” value in assay [4] (strain ID O, broth microdilution) is reported as “=0.05”. In addition, the “MIC, strain ID G” value in assay [5] (strain ID G, broth microdilution) is “=0.05”. The “MIC, strain ID N” value in assay [6] (strain ID N, broth microdilution) is reported as “=0.05”. For the same compound, in assay [7] (strain ID D, broth microdilution), the “MIC, strain ID D” value is 0.1. Besides, in [13], the “MIC, strain ID A” value is recorded as 0.2. Further, the MIC, strain ID H in assay [8] (strain ID H, broth microdilution) was 6.25 µg/mL (≈ 7.32 µM). In addition, the “MIC, strain ID Q” value in assay [9] (strain ID Q, broth microdilution, in µg/mL (unit assumed)) is recorded as 0.2. The “MIC, strain ID C” value in assay [11] (strain ID C, broth microdilution) amounted to 0.1. Moreover, the “MIC, strain ID E” value in assay [12] (strain ID E, broth microdilution, in µg/mL (unit assumed)) was 0.1. In [14], the “MIC, strain ID L” value stood at 1.56. Besides, the “MIC, strain ID J” value in assay [15] came out at 6.25. Also, in assay [16], the “MIC, strain ID I” value turned out to be 6.25. For the same compound, the “MIC, strain ID F” value in [17] was 0.78. For the same compound, in assay [18], the “MIC, strain ID K” value came out at 6.25. Also, the MIC, strain ID B in assay [19] was more than 50 µg/mL.
